What was measured:
rat α7 nAChRs = target: T1, rat α7 nAChRs (Rattus norvegicus, UniProt Q05941); test: Automated planar patch clamp (Patchliner) electrophysiology, α7 nAChR PAM activity; format: cell-based; parameters: key to Type I or Type II: I: Type 1 predominately affects the peak current; Type II modulators affect the peak current and also delay the desensitization of the receptor; details: for activation at 3 µM: GH4-C1, 3 μM compound in the presence of acetylcholine, GH4C1 cells expressing rat α7 nAChRs, peak current, read-out: Peak potentiation at 3 μM compound; for Type I or Type II: modulator type based on the electrophysiology trace
T1 construct: expressed in transfected cells; host or cells: GH4C1 cells (rat pituitary line) stably expressing α7 nAChR
Method: Tested compounds were prepared by serial dilutions of 10 mM stock solution in DMSO to concentrations of the compound 1000 times higher than its final concentration. The DMSO stock solutions were then diluted 1:100 in the recording buffer bringing DMSO concentration to 1%. These intermediate solutions were further diluted 10 times with buffer to obtain final concentrations and lower DMSO concentration to 0.1%. […]
Compounds of the invention may be evaluated by electrophysiology using a Patchliner® (Nanion Technologies GmbH, Germany), an automated planar patch-clamp platform of medium throughput was used as a first step in electrophysiological assessment of α7 nAChR positive allosteric modulators (PAMs).
Briefly, intracellular (KCl—50 mM, NaCl—10 mM, KF—60 mM, EGTA—20 mM, HEPES—10 mM, pH—7.2, 285 mOsmol) and extracellular (NaCl—140 mM, KCl—4 mM, CaCl2—2 mM, MgCl2—1 mM, HEPES—10 mM, D-Glucose—5 mM, pH—7.4, 298 mOsmol) solutions were automatically pipetted onto NPC-16 chip (medium resistance ˜2.5-2.6 MΩ). Suspension of GH4C1 cells expressing rat α7 nAChRs was introduced in 4 wells of a medium resistance chip and suction was applied to attract cells in the holes. The extracellular solution was subsequently exchanged to high calcium solution (NaCl—80 mM, KCl—3 mM, CaCl2—45 mM, HEPES—10 mM, pH—7.4, 298 mOsmol) followed by gigaohm seal formation and obtaining whole-cell configuration. The rest of protocol was carried out in the high-calcium recording solution. Holding potential was −70 mV throughout the protocol. A control response to 60 or 100 μM of ACh was obtained first. Next, a cell was pre-incubated with compound of interest at 3 μM for ˜30 s after which the compound was co-applied with acetylcholine.
Amplitude of the responses was measured in HEKA Patchmaster software (HEKA Elektronik, Germany) and percentage of potentiation calculated. Recording was repeated […] a minimum of two replicates had been obtained per compound.
Compounds shown in Table 1 were evaluated by automated planar patch clamp on the Patchliner® as described in Example P2.1. […] The compounds are designated either as Type I or Type II modulators based on the electrophysiology trace. Type 1 predominately affects the peak current. Type II modulators affect the peak current and also delay the desensitization of the receptor.

mice = test: T-maze Continuous Alternation Task (T-CAT), scopolamine-induced cognitive impairment; format: in vivo; details: mouse; dosed orally at 10 mg/kg; scopolamine-induced deficit
Text: The T-maze Continuous Alternation Task (T-CAT) measures spontaneous alternation, which is the innate tendency of mice to alternate free choices in a T-maze over a series of successive runs. This sequential procedure relies on working memory and is sensitive to various pharmacological manipulations affecting memory processes.
The T-maze apparatus is made of gray Plexiglas with a main stem (55 cm long×10 cm wide×25 cm high) and two arms (30 cm long×10 cm wide×25 cm high) positioned at 90 degree angle relative to the main stem. A start box (15 cm long×10 cm wide) is separated from the main stem by a sliding door. Sliding doors are also provided to close specific arms during the forced-choice alternation task.
The experimental protocol consists of one single session, which starts with 1 “forced-choice” trial, followed by 14 “free-choice” trials. In the first “forced-choice” trial, the animal is confined for 5 s in the start arm and then it is released while either the left or right goal arm is blocked by a sliding door. The animal will negotiate the maze, eventually enter the open goal arm, and return to the start position. Immediately after the return to the start position, the left or right goal door is opened and the animal is allowed to choose freely between the left and right goal arm (“free choice” trials). The animal is considered to have entered an arm when it places four paws in the arm. A session is terminated and the animal is removed from the maze as soon as 14 free-choice trials have been performed or 10 minutes have elapsed, whichever event occurs first. The percentage of alternation over the 14 free-choice trials is determined for each mouse and is used as an index of working memory performance. This percentage is defined as entry in a different arm of the T-maze over successive visits (i.e., left-right-left-right, etc).
Scopolamine administered 20 minutes prior the initiation of the T-maze session is used to induce disruption in the spontaneous alternation of mice. Test compounds are administered 60 minutes prior the start of the T-maze session in order to evaluate their ability to reverse the scopolamine effect.
The apparatus is cleaned between each animal using alcohol (70°). Urine and faeces are removed from the maze. During the trials, animal handling and the visibility of the operator are minimized as much as possible.
The compounds were dosed orally at 10 mg/kg.

T1 sequence (Q05941 23-502): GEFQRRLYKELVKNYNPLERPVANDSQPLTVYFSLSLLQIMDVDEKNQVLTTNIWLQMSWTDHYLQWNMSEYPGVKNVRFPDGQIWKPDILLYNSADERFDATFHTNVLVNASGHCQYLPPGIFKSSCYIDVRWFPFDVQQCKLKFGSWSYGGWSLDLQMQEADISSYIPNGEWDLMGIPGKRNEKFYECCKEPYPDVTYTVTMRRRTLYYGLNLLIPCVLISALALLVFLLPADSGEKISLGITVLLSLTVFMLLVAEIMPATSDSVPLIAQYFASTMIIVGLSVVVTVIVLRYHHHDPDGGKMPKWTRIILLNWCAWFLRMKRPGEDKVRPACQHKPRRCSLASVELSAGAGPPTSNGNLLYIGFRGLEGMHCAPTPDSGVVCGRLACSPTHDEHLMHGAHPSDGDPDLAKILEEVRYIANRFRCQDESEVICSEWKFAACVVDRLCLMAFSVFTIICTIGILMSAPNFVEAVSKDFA

melting point [°C] | Structure (SMILES) | activation at 3 µM (rat α7 nAChRs) [%] | Type I or Type II (rat α7 nAChRs) | T-maze % control at 10 mg/kg (mice) [% control]
– | NS(=O)(=O)c1ccc([C@H]2C[C@@H]2CNc2ccc(F)cc2)cc1 [Example 3, ±trans 4-(2-{[(4-fluorophenyl)amino]methyl}cyclopropyl)benzenesulfonamide] | 969 | I | 62
– | CC1(C)[C@H](CNc2ccc(F)cc2)[C@H]1c1ccc(S(N)(=O)=O)cc1 [Example 13, ±trans 4-[3-{[(4-fluorophenyl)amino]methyl}-2,2-dimethylcyclopropyl]benzenesulfonamide] | – | II | 80
– | CC1(C)[C@@H](CNc2ccc(F)cc2C(F)(F)F)[C@@H]1c1ccc(S(N)(=O)=O)cc1 [Example 17, 4-[(1S,3S)-3-({[4-fluoro-2-(trifluoromethyl)phenyl]amino}methyl)-2,2-dimethylcyclopropyl]benzenesulfonamide] | – | I | 100
– | COc1ccc(Cl)cc1NC[C@@H]1[C@@H](c2ccc(S(N)(=O)=O)cc2)C1(C)C [Example 20, 4-[(1R,3R)-3-{[(5-chloro-2-methoxyphenyl)amino]methyl}-2,2-dimethylcyclopropyl]benzenesulfonamide] | – | I | 100
– | COc1ccc(Cl)cc1NC[C@H]1[C@H](c2ccc(S(N)(=O)=O)cc2)C1(C)C [Example 21, 4-[(1S,3S)-3-{[(5-chloro-2-methoxyphenyl)amino]methyl}-2,2-dimethylcyclopropyl]benzenesulfonamide] | – | II | 100
210 to 212 | Cc1cc(F)c(F)cc1NC[C@@H]1[C@@H](c2ccc(S(N)(=O)=O)cc2)C1(C)C [Example 30, 4-[(1R,3R)-3-{[(4,5-difluoro-2-methylphenyl)amino]methyl}-2,2-dimethylcyclopropyl]benzenesulfonamide] | 419 | I | 70
– | CC1(C)[C@@H](CNc2ccc(F)cc2OC(F)F)[C@@H]1c1ccc(S(N)(=O)=O)cc1 [Example 50, 4-[(1S,3S)-3-({[2-(difluoromethoxy)-4-fluorophenyl]amino}methyl)-2,2-dimethylcyclopropyl]benzenesulfonamide] | – | II | 77
– | CC1(C)[C@H](CNc2ccc(F)cc2OC(F)F)[C@H]1c1ccc(S(N)(=O)=O)cc1 [Example 51, 4-[(1R,3R)-3-({[2-(difluoromethoxy)-4-fluorophenyl]amino}methyl)-2,2-dimethylcyclopropyl]benzenesulfonamide] | 171 | I | 81

Source: patent US9790173B2, “Alpha-7 nicotinic acetylcholine receptor modulators and uses thereof-I” (MERCK SHARP & DOHME CORP., priority 2012, dated 2017)
